Experiment [1] relates to Radical scavenging activity. Description: Antioxidant activity assessed as DPPH radical scavenging activity after 30 mins by spectrometric assay method. Type of experiment: functional. (The DPPH test is a chemical assay of radical scavenging.)
Experiment [2] concerns Radical scavenging activity. Description: Antioxidant activity assessed as DPPH radical scavenging activity at 20 to 1000 ug/mL after 30 mins by spectrometric assay method. Type of experiment: functional.

Five compounds from ChEMBL document CHEMBL1154854, “Synthesis and antioxidant properties of enone core based dendrimers with carbazole as surface group” (Eur J Med Chem, 2010) can be followed below.

One may read the IC50 as the midpoint of a concentration-inhibition curve.

Each structure is given as a SMILES string. Values after ≈ are worked out from the molar mass of the structure shown. Active and inactive are the calls of the source. The rule behind the calls is not given here.

Turning to `O=C1/C(=C/c2ccc(OCc3cc(OCc4ccc(-n5c6ccccc6c6ccccc65)cc4)cc(OCc4ccc(-n5c6ccccc6c6ccccc65)cc4)c3)cc2)CCC/C1=C\c1ccc(OCc2cc(OCc3ccc(-n4c5ccccc5c5ccccc54)cc3)cc(OCc3ccc(-n4c5ccccc5c5ccccc54)cc3)c2)cc1`, the Activity entry in experiment [1] was “Dose-dependent effect”.

On to `COc1ccc(O)c(C(C)(C)C)c1.COc1ccc(O)cc1C(C)(C)C` [BUTYLATED HYDROXYANISOLE], for which the IC50 in experiment [1] came out at 29 µg/mL.

Regarding `O=C1/C(=C/c2ccc(OCc3cc(OCc4cc(OCc5ccc(-n6c7ccccc7c7ccccc76)cc5)cc(OCc5ccc(-n6c7ccccc7c7ccccc76)cc5)c4)cc(OCc4cc(OCc5ccc(-n6c7ccccc7c7ccccc76)cc5)cc(OCc5ccc(-n6c7ccccc7c7ccccc76)cc5)c4)c3)cc2)CCC/C1=C\c1ccc(OCc2cc(OCc3cc(OCc4ccc(-n5c6ccccc6c6ccccc65)cc4)cc(OCc4ccc(-n5c6ccccc6c6ccccc65)cc4)c3)cc(OCc3cc(OCc4ccc(-n5c6ccccc6c6ccccc65)cc4)cc(OCc4ccc(-n5c6ccccc6c6ccccc65)cc4)c3)c2)cc1`, the 50% inhibitory concentration (IC50) in experiment [1] turned out to be 48 µg/mL (≈ 15.6 µM). Further, in experiment [2], the result was Active.

In the case of `Cc1c(C)c2c(c(C)c1O)CC[C@@](C)(CCC[C@H](C)CCC[C@H](C)CCCC(C)C)O2` [ALPHA-TOCOPHEROL], the IC50 in experiment [1] was 25 µg/mL (≈ 58 µM).

`O=C1O[C@H]([C@@H](O)CO)C(O)=C1O` [ASCORBIC ACID]: in experiment [1], the IC50 was found to be 48 µg/mL (≈ 273 µM).
